Reference: PMC7829778, “Optimization of 1,4-Naphthoquinone Hit Compound: A Computational, Phenotypic, and In Vivo Screening against Trypanosoma cruzi” (Molecules, 2021)
Like-named read-outs stand apart in the source and are kept apart here.

Tests used:
[1] = tested on: T. cruzi trypomastigotes Dm28c-Luc; assay: Trypanocidal activity against trypomastigotes, Dm28c-Luc clone (luciferase); format: cell-based, Trypanosoma cruzi; details: 24 h, mean ± SD of three experiments; for IC50: read-out: Trypanocidal Effect Trypomastigotes Dm28c-Luc IC50; for IC90: read-out: Trypanocidal Effect Trypomastigotes Dm28c-Luc IC90
Experimental: (§1) T. cruzi Dm28c-Luc clone, genetically modified to express firefly luciferase, and Y strain were used in the drug screening assay. Vero cells were infected with T. cruzi, Dm28c-Luc or Y strain, in a 10:1 parasites/host cell ratio and maintained at 37 °C in humidified atmosphere of 5% CO2. Trypomastigotes were harvested from the infected culture supernatant on the 4th day post-infection (dpi) followed by quantification of the number of parasites/mL in Neubauer chamber.
(§2) Screening of the compounds was performed against trypomastigotes and intracellular amastigote forms. Trypomastigotes (1 × 10^6 parasites/well), Dm28c-Luc clone and Y strain, were incubated for 24 h at 37 °C with the 1,4 naphthoquinone derivatives and Bz (0.41–100 μM) and their viability determined by the activity of the luciferase enzyme, after addition of luciferin substrate (300 μg/mL), or CellTiter Glo. The luminescent signal was detected on the FlexStation 3 reader.

[2] = tested on: intracellular amastigotes of T. cruzi (Dm28c-Luc clone); assay: Luminescent screening against intracellular amastigotes in infected Vero cells; format: cell-based, Trypanosoma cruzi; details: infected Vero cells treated for 72 h, mean ± SD of three experiments
Experimental: as §1
The effect of the compounds against intracellular amastigotes was screened in 72 h T. cruzi-infected Vero cells. Briefly, Vero cells seeded (1.5 × 10^4 cells/well) on 96-well white plate infected with trypomastigotes (Dm28c-Luc) at a 10:1 multiplicity of parasites/cell. After 24 h of infection, the cultures were washed with PBS and then, treated for 72 h at 37 °C with naphthoquinone derivatives and Bz (0.41–100 µM). After treatment, luciferin (300 µg/mL) was added to the culture and the viability of the parasites was assessed by reading the luminescent signal using the FlexStation 3 reader. Controls were also performed in no-toxic concentrations of DMSO (≤1%).

[3] = Cytotoxicity in vitro assay (CellTiter Glo, ATP level); format: cell-based; details: African green monkey, Vero cells
Experimental: The cultures were maintained at 37 °C in humidified atmosphere of 5% CO2.
To evaluate the toxic effects of the 1,4-naphthoquinone derivatives on mammalian cells, Vero cells were seeded at a density of 1.5 × 10^4 cells/well in 96-well white culture plates. Twenty-four hours later, the cell cultures were incubated for 72 h at 37 °C with 1,4-naphthoquinone derivatives (series 1(a–i) and 2(a–j)) and Bz (500–1.9 µM) diluted in RPMI medium supplemented with 10% FBS. After incubation, the cell viability, measured by ATP level, was assessed by adding 20 µL/well of the CellTiter Glo (Promega Corporation, Madison, WI, EUA) solution. The luminescent signal was read on the FlexStation 3 reader (Molecular Devices, Sunnyvale, CA, USA). […] All treatments and controls were performed at low concentration (≤1%) of dimethyl sulfoxide (DMSO). At least three independent assays were performed in duplicate.

[4] = tested on: T. cruzi trypomastigotes Y strain; assay: Trypanocidal activity against trypomastigotes, Y strain (CellTiter Glo); format: cell-based; details: Trypanosoma cruzi, 24 h
Experimental: as §1, §2

T. cruzi = tested on: T. cruzi; parameters: method as in PMID 18788881; details: C3H/HeN female infected mice, cited from earlier work
T. cruzi Y strain = assay: Murine model of T. cruzi acute infection; format: in vivo, Trypanosoma cruzi
Experimental: Male Swiss Webster mice (18 g) were obtained from the Institute of Science and Technology in Bio-models of the Oswaldo Cruz Foundation, Rio de Janeiro, Brazil. […] The animals received water and an ad libitum feeding regimen. Mice were intraperitoneally (i.p.) infected with bloodstream trypomastigotes of T. cruzi Y strain (10^4 parasites/animal) and parasitemia was daily evaluated from the 4th dpi. […] Daily treatment (0.1 mL i.p. dose) started at 5 days post-infection (dpi) with positive parasitemia and followed up to 10 dpi.
Parasitemia was estimated by Pizzy-Brener method [47]. Briefly, animals parasitemia were determined by microscopic quantification of fresh blood (5 µL) collected from animals’ caudal vein. Mortality was daily evaluated up to 26 days and expressed in survival rates.

[5] = Mouse acute toxicity (NOAEL); format: in vivo
Experimental: Treated animals were separated into two groups: (1) 5 consecutive doses of 50 mg/kg and (2) 100 mg/kg every 1h, totaling a cumulative dose of 250 mg/kg and 500 mg/kg, respectively. Untreated and vehicle treated animals (PBS with 3% Tween-80) were used as control groups. Mice were inspected for toxic and sub-toxic symptoms according to Organization for Economic Co-operation and Development (OECD) guidelines [46].

[6] = Table 1, mean ± SD, read-out: Vero Cells Toxicity CC50
[7] = trypomastigotes, mean ± SD of three experiments, read-out: Trypanocidal Effect Trypomastigotes Y Strain IC50
[8] = trypomastigotes, mean ± SD of three experiments, read-out: Trypanocidal Effect Trypomastigotes Y Strain IC90
[9] = read-out: Trypanocidal Effect Trypomastigotes Y Strain IC90, trypomastigotes, 24 h, mean ± SD of three experiments
[10] = read-out: Trypanocidal Effect Trypomastigotes Y Strain IC50, trypomastigotes, 24 h, mean ± SD of three experiments

Compound | melting point | IC50 ([1]; Trypanosoma cruzi) | IC90 ([1]; Trypanosoma cruzi) | IC50 ([2]; Trypanosoma cruzi, Vero, 72 h) | IC90 ([2]; Trypanosoma cruzi) | IC50 [2] | CC50 at 72 h [3, 6] | CC50 at 72 h ([3]; Table 2, read-out: CC50 Vero) | IC50 [4, 7] | IC90 [4, 8] | other results
O=C1C(O)=C(C(Sc2ccc(Cl)cc2)c2ccc(Cl)cc2)C(=O)c2ccccc21 (stereo not drawn) [Compound 1a, 2-((4-chlorophenyl)((4-chlorophenyl)thio)methyl)-3-hydroxynaphthalene-1,4-dione] | 135 to 136 °C | 8.9 ± 0.6 µM | 25.1 ± 1.6 µM | ≤ 6.9 µM | 12.1 ± 1.3 µM | 6.2 ± 0.9 µM | 43.6 ± 2.3 µM | 43.6 ± 2.3 µM | 3.1 ± 0.6 µM | 5.8 ± 0.9 µM | –
COc1ccc(C(Sc2ccc(F)cc2)C2=C(O)C(=O)c3ccccc3C2=O)cc1 (stereo not drawn) [Compound 2e, 2-(((4-fluorophenyl)thio)(4-methoxyphenyl)methyl)-3-hydroxynaphthalene-1,4-dione] | 132 to 134 °C | 24.4 ± 4.4 µM | 31.4 ± 4.4 µM | ≤ 6.9 µM | 19.7 ± 3.2 µM | 6.8 ± 1.5 µM | 47.7 ± 3.2 µM | 47.7 ± 3.2 µM | 20.3 ± 4.1 µM | 32.3 ± 5.1 µM | –
COc1ccc(C(Sc2ccccc2C)C2=C(O)C(=O)c3ccccc3C2=O)cc1 (stereo not drawn) [Compound 2b, 2-Hydroxy-3-((4-methoxyphenyl)(o-tolylthio)methyl) naphthalene-1,4-dione] | 54 to 55 °C | 25.9 ± 2.2 µM | 31.8 ± 0.9 µM | ~12 µM | 27.4 ± 2.4 µM | 11.3 ± 1.1 µM | 44.4 ± 3.4 µM | 44.4 ± 3.4 µM | 27.9 ± 4.1 µM | 37.9 ± 6.1 µM | –
COc1ccc(C(Sc2ccc3ccccc3c2)C2=C(O)C(=O)c3ccccc3C2=O)cc1 (stereo not drawn) [Compound 2h, 2-Hydroxy-3-((4-methoxyphenyl)(naphthalen-2-ylthio)methyl) naphthalene-1,4-dione] | 56 to 57 °C | 21.7 ± 4.7 µM | 39.7 ± 5.7 µM | 22.4 ± 2.2 µM | 31.5 ± 6.1 µM | – | 63.4 ± 7.1 µM | 63.4 ± 7.1 µM | 24.5 ± 3.6 µM | 34.5 ± 4.6 µM | –
O=C1C(O)=C(C(Sc2ccc(Cl)cc2)c2ccccc2Cl)C(=O)c2ccccc21 (stereo not drawn) [Compound 1c, 2-((2-chlorophenyl)((4-chlorophenyl)thio)methyl)-3-hydroxynaphthalene-1,4-dione] | 183 to 184 °C | 8.6 ± 1.4 µM | 29.6 ± 5.4 µM | 9.3 ± 0.8 µM | 23.1 ± 3.3 µM | – | 44.1 ± 2.3 µM | 44.1 ± 2.3 µM | 4.3 ± 3.2 µM | 7.3 ± 2.2 µM | –
O=C1C(c2ccccc2)=C(c2ccccc2)C(=O)c2ccccc21 [DPNQ, 2,3-diphenyl-1,4-naphthoquinone] | – | – | – | – | – | – | – | – | – | – | animal survival (T. cruzi; up to 70 dpi): 60%; parasite load (T. cruzi): reduced two-fold the parasite load
O=C1C(O)=C(C(Sc2ccc(Cl)cc2Cl)c2ccccc2)C(=O)c2ccccc21 (stereo not drawn) [Compound 1d, 2-(((2,4-dichlorophenyl)thio)(phenyl)methyl)-3-hydroxynaphthalene-1,4-dione] | 144 to 145 °C | 9.3 ± 1.1 µM | 23.3 ± 2.1 µM | 13.5 ± 2.1 µM | 31.1 ± 3.1 µM | – | 82.1 ± 5.1 µM | 82.1 ± 5.1 µM | 2.8 ± 0.6 µM | 5.8 ± 1.1 µM | –
COc1ccc(C(Sc2ccc(Cl)cc2)C2=C(O)C(=O)c3ccccc3C2=O)cc1 (stereo not drawn) [Compound 1g, 2-(((4-chlorophenyl)thio)(4-methoxyphenyl)methyl)-3-hydroxynaphthalene-1,4-dione] | – | 8.1 ± 0.6 µM | ≤ 19.3 µM | ≤ 6.9 µM | 11.4 ± 2.1 µM | 6.7 ± 1.8 µM | 99.9 ± 12.5 µM | 99.5 ± 12.5 µM | 10.2 ± 0.5 µM | 16.8 ± 2.5 µM | parasitemia / parasitic load (T. cruzi Y strain; Swiss Webster male mice, 10^4 Y strain trypomastigotes, i.p. treatment 5 consecutive days from 5 dpi, C2 50 and 100 mg/kg/day, 1g 50 mg/kg/day): not efficient in eliminating the parasites; prevention of mortality / survival (T. cruzi Y strain; Swiss Webster male mice, Y strain, i.p. treatment from 5 dpi, C2 50 and 100 mg/kg/day, 1g 50 mg/kg/day): not able to prevent mortality; IC90 [1]: 19.3 ± 3.4 µM; IC90 [4, 9]: ≤ 19.3 µM; death in acute toxicity assessment ([5]; intraperitoneal, cumulative dose of 500 mg/kg (5 x 100 mg/kg), n = 2): one animal died; changes in mouse behavioral characteristics ([5]; oral and i.p. cumulative doses, acute toxicity assessment): not observed; toxic side effects according to the OECD guidelines ([5]; oral and i.p., five doses of 50 mg/kg 1 h apart, total cumulative dose 250 mg/kg, up to 48 h post-treatment): No toxic side effects
O=C(Cn1ccnc1[N+](=O)[O-])NCc1ccccc1 [Bz, benznidazole, reference compound] | – | 17.5 ± 3.3 µM | > 100 µM | – | 7.9 ± 1.2 µM | – | > 500 µM | > 500 µM | – | – | parasitemia by microscopic analysis (T. cruzi Y strain; infected mice treated orally with Bz 100 mg/kg/day): undetectable parasitemia; survival (T. cruzi Y strain; infected mice treated orally with Bz 100 mg/kg/day, 26 days): survived during all period analyzed; IC50 ([2]; Trypanosoma cruzi): 1.4 ± 0.4 µM; IC50 [4, 10]: 14.3 ± 3.2 µM; IC90 [4, 9]: > 100 µM
COc1ccc(C(Sc2ccccc2)C2=C(O)C(=O)c3ccccc3C2=O)cc1 (stereo not drawn) [Compound 2a, 2-Hydroxy-3-((4-methoxyphenyl)(phenylthio)methyl)naphthalene-1,4-dione] | – | 27.4 ± 2.9 µM | 32.1 ± 1.6 µM | ≤ 6.9 µM | 25.3 ± 1.9 µM | 6.7 ± 1.6 µM | 45.1 ± 1.9 µM | 45.1 ± 1.9 µM | 31.2 ± 4.3 µM | 38.9 ± 5.3 µM | –
O=C1C(O)=C(C(Sc2ccc(Cl)cc2)c2cn(-c3cc(Cl)cc(Cl)c3)nn2)C(=O)c2ccccc21 (stereo not drawn) [Compound 1e, 2-(((4-chlorophenyl)thio)(1-(3,5-dichlorophenyl)-1H-1,2,3-triazol-4-yl)methyl)-3-hydroxynaphthalene-1,4-dione] | 142 to 143 °C | ~4.5 µM | 16.5 ± 2.8 µM | 9.1 ± 0.7 µM | 27.9 ± 3.9 µM | – | 34.1 ± 2.9 µM | 34.1 ± 7.5 µM | 4.7 ± 1.9 µM | 5.5 ± 0.9 µM | IC50 [4, 10]: ~4.5 µM
COc1ccc(C(Sc2ccc(Cl)cc2)C2=C(O)C(=O)c3ccccc3C2=O)c(OC)c1 (stereo not drawn) [Compound 1h, 2-(((4-chlorophenyl)thio)(2,4-dimethoxyphenyl)methyl)-3-hydroxynaphthalene-1,4-dione] | – | 15.4 ± 4.6 µM | – | 12.1 ± 3.9 µM | 19.4 ± 3.6 µM | – | 24.4 ± 2.6 µM | 24 to 34 µM | – | – | IC50 [4, 10]: 22.9 ± 7.1 µM; IC90 [4, 9]: 31.9 ± 6.1 µM
